Assay results published in ChEMBL document CHEMBL6087420, “Synthesis and pharmacodynamic evaluation of 2-aminoindole derivatives against influenza A virus in vitro/vivo” (Eur J Med Chem, 2025).
Calls of active or inactive are those of the source. No cut-off for these calls is given here.

How the values were obtained:
Influenza A virus [1] = assay: Anti-influenza activity against influenza A virus H3N2 (A/California/2014) infected in dog MDCK cells incubated for 72 hrs by MTT assay; type: functional, organism-based
Influenza A virus [2] = assay: Inhibition of influenza A virus infection induced apoptosis in MDCK cells infected with influenza virus assessed as necrotic cells at 50 uM incubated for 36 hrs by AnnexinV-FITC/PI staining based flow cytometry (reference value: 1.79%); type: functional; set-up: scale not given: the % may be the effect or the level left
[3] = Selectivity index, ratio of CC50 for dog MDCK cells to EC50 for antiviral activity against Influenza A virus H1N1 (A/Weiss/43) infected in MDCK cells; type: toxicity, cell-based
[4] = Cytotoxicity against dog MDCK cells after 72 hrs incubation by MTT assay; type: toxicity, cell-based, Canis lupus familiaris
Influenza A virus [5] = assay: Inhibition of influenza A virus infection induced apoptosis in MDCK cells infected with influenza virus assessed as viable cells at 50 uM incubated for 36 hrs by AnnexinV-FITC/PI staining based flow cytometry (reference value: 66.9%); type: functional
[6] = Selectivity index, ratio of CC50 for dog MDCK cells to EC50 for antiviral activity against Influenza A virus H1NI (A/Virginia/ATCC2/2009) infected in MDCK cells; type: toxicity, cell-based; conditions: read-out: Selectivity Index
Influenza A virus [7] = assay: Inhibition of influenza A virus infection induced apoptosis in MDCK cells infected with influenza virus assessed as late apoptotic cells at 50 uM incubated for 36 hrs by AnnexinV-FITC/PI staining based flow cytometry (reference value: 13.2%); type: functional; set-up: scale not given: the % may be the effect or the level left
[8] = Selectivity index, ratio of CC50 for dog MDCK cells to EC50 for antiviral activity against Influenza A virus […] H3N2 (A/California/2014) infected in MDCK cells; type: toxicity, cell-based; conditions: read-out: Selectivity Index
Influenza A virus [9] = assay: Anti-influenza activity against influenza A virus H1NI (A/Virginia/ATCC2/2009) infected in dog MDCK cells incubated for 72 hrs by MTT assay; type: functional, organism-based
Influenza A virus [10] = assay: Inhibition of influenza A virus infection induced apoptosis in MDCK cells infected with influenza virus assessed as early apoptotic cells at 50 uM incubated for 36 hrs by AnnexinV-FITC/PI staining based flow cytometry (reference value: 18.2%); type: functional; set-up: scale not given: the % may be the effect or the level left
Influenza A virus [11] = assay: Anti-influenza activity against influenza A virus H1NI (A/Weiss/43) infected in dog MDCK cells assessed as virus inhibition rate incubated for 72 hrs by MTT assay; type: functional, organism-based
Influenza A virus [12] = assay: Anti-influenza activity against influenza A virus H1NI (A/Weiss/43) infected in dog MDCK cells assessed as virus inhibition rate at 0.625 uM incubated for 72 hrs by MTT assay; type: functional, organism-based
Influenza A virus [13] = assay: Anti-influenza activity against influenza A virus H1NI (A/Weiss/43) infected in dog MDCK cells assessed as virus inhibition rate at 100 uM incubated for 72 hrs by MTT assay; type: functional, organism-based

SMILES | CC50 at 72 h [4] [µM] | Virus inhibition rate at 0.625 uM (Influenza A virus [12]) | Activity (Influenza A virus [13]) | also measured
CCOC(=O)C1=C[C@@H](OC(CC)CC)[C@H](NC(C)=O)[C@@H](N)C1 [OSELTAMIVIR] | > 800 |  |  | EC50 (Influenza A virus [1]): 26.3 µM; Activity (Influenza A virus [2]): 2.11%; selectivity ratio ([3]; read-out: Selectivity Index): > 107; Activity (Influenza A virus [5]): 91.7%; selectivity ratio [6]: > 68.6; Activity (Influenza A virus [7]): 2.33%; selectivity ratio [8]: > 30.4; EC50 (Influenza A virus [9]; Influenza A virus, H1NI (A/Virginia/ATCC2/2009), MDCK, 72 h): 11.7 µM; Activity (Influenza A virus [10]): 3.85%; EC50 (Influenza A virus [11]): 7.1 µM
Cc1ccc(S(=O)(=O)n2c(NS(C)(=O)=O)c(-c3ccccc3Cl)c3ccccc32)cc1 | 20.9 | Not_active | inactive | 
Cc1ccc(S(=O)(=O)n2c(NS(C)(=O)=O)c(-c3ccccc3)c3cc(Br)ccc32)cc1 | < 6.25 | Not_active | inactive | 
Cc1ccc(-c2c(NS(C)(=O)=O)n(S(=O)(=O)c3ccc(C)cc3)c3ccccc23)cc1 | 14.1 | Not_active | inactive | 
CS(=O)(=O)Nc1c(-c2ccccc2)c2ccccc2n1S(=O)(=O)c1ccccc1 | 36.4 | Not_active | inactive | 
COc1ccc(S(=O)(=O)n2c(NS(C)(=O)=O)c(-c3ccccc3)c3ccccc32)cc1 | 12.6 | Not_active | inactive | 
Cc1ccc(S(=O)(=O)Nc2c(-c3ccccc3)c3ccccc3n2S(=O)(=O)c2ccc(C)cc2)cc1 | 414 | Not_active | inactive | 
Cc1ccc(S(=O)(=O)n2c(NS(C)(=O)=O)c(-c3ccccc3F)c3ccccc32)cc1 | < 6.25 | Not_active | inactive | 
Cc1ccc(S(=O)(=O)n2c(NS(C)(=O)=O)c(-c3ccc(Cl)cc3)c3ccccc32)cc1 | 14.8 | Not_active | inactive | 
Cc1ccc(S(=O)(=O)n2c(NS(C)(=O)=O)c(-c3ccccc3C)c3ccccc32)cc1 | 43 | Not_active | inactive | 
Cc1ccc(S(=O)(=O)n2c(NS(C)(=O)=O)c(-c3cccs3)c3ccccc32)cc1 | 53.6 | Not_active | inactive | 
Cc1ccc(S(=O)(=O)n2c(NS(C)(=O)=O)c(-c3ccccc3)c3cc(F)ccc32)cc1 | 24.4 | Not_active | inactive | 
Cc1ccc(S(=O)(=O)n2c(NS(C)(=O)=O)c(-c3ccc(F)cc3)c3ccccc32)cc1 | 41 | Not_active | inactive | 
CS(=O)(=O)Nc1c(-c2ccccc2)c2ccccc2n1S(=O)(=O)c1ccc([N+](=O)[O-])cc1 | 55.6 | Not_active | inactive | 
COc1ccc2c(-c3ccccc3)c(NS(C)(=O)=O)n(S(=O)(=O)c3ccc(C)cc3)c2c1 | 31.6 | Not_active | inactive | 
Cc1ccc(S(=O)(=O)n2c(NS(C)(=O)=O)c(-c3ccccc3)c3ccccc32)cc1 | 59 | Not_active | inactive | 
COc1ccc(-c2c(NS(C)(=O)=O)n(S(=O)(=O)c3ccc(C)cc3)c3ccccc23)cc1 | 43.6 |  |  | selectivity ratio ([3]; read-out: Ratio CC50/EC50): 21.8; EC50 (Influenza A virus [11]): 2 µM

SMILES | CC50 at 72 h [4] [µM] | Virus inhibition rate at 0.625 uM (Influenza A virus [12]) | Activity (Influenza A virus [13]) | also measured
CS(=O)(=O)Nc1c(-c2ccccc2)c2ccccc2n1S(C)(=O)=O | 341 | Not_active | inactive | 
Cc1ccc(S(=O)(=O)n2c(NS(C)(=O)=O)c(-c3ccccc3)c3cc(Cl)ccc32)cc1 | 12.8 | Not_active | inactive | 
Cc1ccc(S(=O)(=O)n2c(NS(C)(=O)=O)c(-c3ccccc3)c3cc(C)ccc32)cc1 | 21.3 | Not_active | inactive | 
COc1ccc(S(=O)(=O)Nc2c(-c3ccccc3)c3ccccc3n2S(=O)(=O)c2ccc(C)cc2)cc1 | 434 | Not_active | inactive | 
CS(=O)(=O)Nc1c(-c2ccccc2)c2ccccc2n1S(=O)(=O)c1ccc(Cl)cc1 | 14.6 | Not_active | inactive | 
Cc1ccc(S(=O)(=O)n2c(NS(=O)(=O)c3ccc(Cl)cc3)c(-c3ccccc3)c3ccccc32)cc1 | < 6.25 | Not_active | inactive | 
Cc1ccc(S(=O)(=O)n2c(NS(C)(=O)=O)c(-c3cccc(C)c3)c3ccccc32)cc1 | 16.5 | Not_active | inactive | 
Cc1ccc(S(=O)(=O)n2c(NS(C)(=O)=O)c(-c3ccccc3)c3c(C)cc(C)cc32)cc1 | 357 | Not_active | inactive | 
Cc1ccc(S(=O)(=O)n2c(NS(C)(=O)=O)c(-c3ccccc3)c3ccc(C)cc32)cc1 | 5.45 | Not_active | inactive | 
Cc1ccc(S(=O)(=O)n2c(NS(C)(=O)=O)c(-c3cccc(Cl)c3)c3ccccc32)cc1 | 67.1 | Not_active | inactive | 
Cc1ccc(S(=O)(=O)n2c(NS(C)(=O)=O)c(-c3ccccc3)c3ccc(F)cc32)cc1 | 22.8 | Not_active | inactive | 
Cc1ccc(S(=O)(=O)n2c(NS(=O)(=O)c3ccc([N+](=O)[O-])cc3)c(-c3ccccc3)c3ccccc32)cc1 | < 6.25 | Not_active | inactive | 
Cc1ccc(S(=O)(=O)n2c(NS(C)(=O)=O)c(-c3cccc(Br)c3)c3ccccc32)cc1 | 16.9 | Not_active | inactive | 
NC(=O)c1ncn([C@@H]2O[C@H](CO)[C@@H](O)[C@H]2O)n1 [RIBAVIRIN] | 513 |  |  | EC50 (Influenza A virus [1]): 12.8 µM; Activity (Influenza A virus [2]): 1.74%; selectivity ratio ([3]; read-out: Selectivity Index): 70; Activity (Influenza A virus [5]): 92.8%; selectivity ratio [6]: 62.6; Activity (Influenza A virus [7]): 1.62%; selectivity ratio [8]: 40; EC50 (Influenza A virus [9]; mdck): 8.2 µM; Activity (Influenza A virus [10]): 3.8%; EC50 (Influenza A virus [11]): 7.33 µM
Cc1ccc(S(=O)(=O)n2c(NS(=O)(=O)c3ccccc3)c(-c3ccccc3)c3ccccc32)cc1 | 109 | Not_active | inactive | 
Cc1ccc(S(=O)(=O)n2c(NS(C)(=O)=O)c(-c3cccc(F)c3)c3ccccc32)cc1 | 55 | Not_active | inactive | 
Cc1ccc(S(=O)(=O)n2c(NS(C)(=O)=O)c(-c3ccc(Br)cc3)c3ccccc32)cc1 | 13.2 | Not_active | inactive | 
